In US12162858B2, “Quinoline derivatives as inhibitors of AXL/MER RTK and CSF1R” (QURIENT CO., LTD., priority 2018, dated 2024):

Molecular target: T1, Axl (Homo sapiens, UniProt P30530)
T1 sequence (P30530 26-894): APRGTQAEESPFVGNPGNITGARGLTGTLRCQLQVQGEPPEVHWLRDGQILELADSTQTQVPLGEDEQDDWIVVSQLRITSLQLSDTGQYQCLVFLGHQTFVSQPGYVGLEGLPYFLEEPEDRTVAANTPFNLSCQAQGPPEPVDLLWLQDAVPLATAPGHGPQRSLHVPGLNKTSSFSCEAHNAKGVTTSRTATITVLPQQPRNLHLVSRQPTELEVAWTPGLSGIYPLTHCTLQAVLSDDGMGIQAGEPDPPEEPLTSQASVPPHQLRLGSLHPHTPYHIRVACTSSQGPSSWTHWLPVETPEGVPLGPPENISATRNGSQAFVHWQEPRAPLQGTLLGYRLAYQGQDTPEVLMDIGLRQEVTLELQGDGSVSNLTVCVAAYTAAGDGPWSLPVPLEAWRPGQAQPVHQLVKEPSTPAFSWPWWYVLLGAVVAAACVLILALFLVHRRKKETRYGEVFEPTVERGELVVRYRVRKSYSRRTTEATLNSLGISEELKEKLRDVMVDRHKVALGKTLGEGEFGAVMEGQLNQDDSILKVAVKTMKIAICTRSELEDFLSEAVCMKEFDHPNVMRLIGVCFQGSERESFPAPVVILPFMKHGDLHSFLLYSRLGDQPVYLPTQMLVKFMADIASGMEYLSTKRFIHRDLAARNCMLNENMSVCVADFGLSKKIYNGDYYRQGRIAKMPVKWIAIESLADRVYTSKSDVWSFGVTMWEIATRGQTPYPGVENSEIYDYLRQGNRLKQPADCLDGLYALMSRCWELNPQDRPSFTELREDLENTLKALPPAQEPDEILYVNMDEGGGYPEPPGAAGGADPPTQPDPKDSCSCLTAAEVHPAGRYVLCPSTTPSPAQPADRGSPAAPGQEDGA
Assay: Cellular Axl inhibition ELISA (p-Axl, Gas6-induced) using H1299 cells
Format: cell-based
Design: especially H1299 cell endogenously expresses Axl; endogenous in cells; host or cells: H1299
Settings: read-out: Cellular Axl activity by H1299 Elisa (IC50)
Procedure: Axl is expressed in several of malignant cancer cells; especially H1299 cell endogenously expresses Axl; and an increased phosphorylation of Axl (p-Axl) can be observed, when induced by the Axl ligand, Ga6.
The H1299 cells should be 40-80% confluent in the cell culture flask. Then cells are washed with DPBS and trypsinized. After centrifugation, the cell pellet is re-suspended with pre-warmed culture medium (RPMI1640, 10% FBS) and cells are separated by pipetting 6 times up and down with a 10 ml serological pipette. The cell suspension was diluted to a final concentration of 1.25×10^5 cells/ml. Then 80 μl/well cell suspension is added to the plate. Cell-plates are incubated at 37° C./5% CO2 overnight. Compounds were dissolved by DMSO to 10 mM, and kept in nitrogen cabinet. Prepare the compounds stock plate, the reference compounds concentration starts at 0.50 mM (5 μl+95 μl DMSO), and the tested compounds start at 1.5 mM (6 μl+34 μl DMSO); Then make a 3-fold dilution series (10 doses) compounds. Then dilute compounds by the medium in the mid plate (2 μl compounds+198 μl medium). Transfer 20 μl diluted compounds from mid plate to the cell coated plate. Cell-plates are incubated at 37° C./5% CO2 for 24 h. Add 25 μl of Human Gas6 (1000 ng/ml) to 96-well plate; the final concentration of Human Gas6 is 200 ng/ml. Incubate the plates at 37° C./5% CO2 for 1 h. Remove medium and wash cells once with 300 ul/well ice-cold 1×PBS. Then remove PBS and add 100 μl/well ice-cold 1× Cell Lysis Buffer to 96-well plate. The plate is shaken for 40 min at 4° C. Then plates can be stored at −20° C. After the micro-wells strips have reached room temperature, break off the required number of micro-wells. Place the micro-wells in the strip holder. Unused micro-wells must be resealed and stored at 4° C. immediately. Add 60 μl of cell lysate to the appropriate well. Seal with tape and press firmly onto top of micro-wells. Incubate the plate at 37° C. for 2 h. Gently remove the tape and wash wells 5 times with 1× Wash Buffer, 300 μl each time for each well. Add 100 μl of reconstituted Detection Antibody (green color) to each well. Seal with tape and incubate the plate at 37° C. for 1 h. Repeat wash procedure. Add 100 μl of reconstituted HRP Linked secondary antibody to each well. Seal with tape and incubate the plate at 37° C. for 30 min. Repeat wash procedure. Add 100 μl of TMB Substrate to each well. Seal with tape and incubate the plate at 37° C. for 15 min. Add 100 μl of STOP Solution to each well. Shake gently for a few seconds. Read absorbance at 450 nm within 30 min after adding STOP Solution. Calculations and Formulas: The following calculations and formulas are used for data analysis using XL Fit software: The curve fitting was made using the Sigmoidal Dose-Response Model (Fit model, 205).

In the case of `COc1cc2nccc(Oc3ccc(NC(=O)c4nn(CC(C)O)cc4OC(C)C)nc3)c2cc1OC` (centres unmarked) [Compound 151], the IC50 is reported as < 500 nM.
`COc1cc2nccc(Oc3ccc(NC(=O)c4nn(C5CCOC5)cc4OCC(F)(F)F)nn3)c2cc1OC` (centres unmarked) [Compound 128] was tested, and the IC50 was < 500 nM.
`COc1cc2nccc(Oc3ccc(NC(=O)c4nn(C5CCN(C)C5)cc4OCC(F)(F)F)nn3)c2cc1OC` (centres unmarked) [Compound 157] was tested, and the IC50 was ≥ 1000 nM.
`COc1cc2nccc(Oc3ccc(NC(=O)c4nn(C5CC5)cc4OC(C)C)nn3)c2cc1OC` [Compound 147] was tested, and the IC50 was < 500 nM.
With `CCn1cc(OC(C)C)c(C(=O)Nc2ccc(Oc3ccnc4cc(OC)c(OC)cc34)cn2)n1` [Compound 6] the IC50 was < 500 nM.
With `CNCCn1cc(OCC(F)(F)F)c(C(=O)Nc2ccc(Oc3ccnc4cc(OC)c(OC)cc34)nn2)n1` [Compound 127] the IC50 was ≥ 1000 nM.
With `COc1cc2nccc(Oc3ccc(NC(=O)c4nn(CC(C)O)cc4OCC4CCC4)nc3)c2cc1OC` (centres unmarked) [Compound 163] the IC50 was < 500 nM.
`CCCn1cc(OCCNC)c(C(=O)Nc2ccc(Oc3ccnc4cc(OC)c(OC)cc34)cn2)n1` [Compound 140] was tested, and the IC50 was ≥ 1000 nM.
With `COc1cc2nccc(Oc3ccc(NC(=O)c4nn(CC5COC5)cc4OCC(F)(F)F)nn3)c2cc1OC` [Compound 123] the IC50 was < 500 nM.
For `COc1cc2nccc(Oc3ccc(NC(=O)c4nn(C5CC5)cc4NCCC(F)(F)F)nc3)c2cc1OC` [Compound 142], the IC50 was < 500 nM.
In the case of `COc1cc2nccc(Oc3ccc(NC(=O)c4nn(CCN)cc4OCC(F)(F)F)nn3)c2cc1OC` [Compound 125], the IC50 is reported as ≥ 1000 nM.
`COc1cc2nccc(Oc3ccc(NC(=O)c4nn(CC5COC5)cc4OCC(F)(F)F)cc3C)c2cc1OC` [Compound 99] was tested, and the IC50 was < 500 nM.
For `COc1cc2nccc(Oc3ccc(NC(=O)c4nn(C5CCOC5)cc4OCC(F)(F)F)cn3)c2cc1OC` (centres unmarked) [Compound 138], the IC50 was < 500 nM.
For `COc1cc2nccc(Oc3ccc(NC(=O)c4nn(C5CC5)cc4OCC4COC4)nc3)c2cc1OC` [Compound 143], the IC50 was < 500 nM.
With `CCn1cc(OCC2CCC2)c(C(=O)Nc2ccc(Oc3ccnc4cc(OC)c(OC)cc34)cn2)n1` [Compound 8] the IC50 was < 500 nM.
`CCCn1cc(OCC2CCOCC2)c(C(=O)Nc2ccc(Oc3ccnc4cc(OC)c(OC)cc34)cn2)n1` [Compound 164] was tested, and the IC50 was < 500 nM.
`COc1cc2nccc(Oc3ccc(NC(=O)c4nn(C5CC5)cc4OCC(F)(F)F)nn3)c2cc1OC` [Compound 112] was tested, and the IC50 was < 500 nM.
`COc1cc2nccc(Oc3ccc(NC(=O)c4nn(C5CC5)cc4OCC4CCC4)nn3)c2cc1OC` [Compound 149] was tested, and the IC50 was < 500 nM.
`CNCCn1cc(OCC(F)(F)F)c(C(=O)Nc2ccc(Oc3ccnc4cc(OC)c(OC)cc34)cn2)n1` [Compound 11] was tested, and the IC50 was < 500 nM.
In the case of `CNCCn1cc(OCC(F)(F)F)c(C(=O)Nc2ccc(Oc3ccnc4cc(OC)c(OC)cc34)cc2)n1` [Compound 119], the IC50 is reported as ≥ 1000 nM.
In the case of `CCCn1cc(OCCN(C)C)c(C(=O)Nc2ccc(Oc3ccnc4cc(OC)c(OC)cc34)c(F)c2)n1` [Compound 165], the IC50 is reported as < 500 nM.
For `COc1cc2nccc(Oc3ccc(NC(=O)c4nn(CC5COC5)cc4OCC(F)(F)F)cc3F)c2cc1OC` [Compound 97], the IC50 was < 500 nM.
`COc1cc2nccc(Oc3ccc(NC(=O)c4nn(C5CCN(C)C5)cc4OCC(F)(F)F)cc3)c2cc1OC` (centres unmarked) [Compound 100] gave an IC50 of 500 to 1000 nM.
For `COc1cc2nccc(Oc3ccc(NC(=O)c4nn(CC(C)C)cc4OCC(F)(F)F)cn3)c2cc1OC` [Compound 103], the IC50 was < 500 nM.
In the case of `COc1cc2nccc(Oc3ccc(NC(=O)c4nn(C5CC5)cc4OCC4COC4)nn3)c2cc1OC` [Compound 161], the IC50 is reported as < 500 nM.
In the case of `COc1cc2nccc(Oc3ccc(NC(=O)c4nn(C5CCNC5)cc4OCC(F)(F)F)nn3)c2cc1OC` (centres unmarked) [Compound 122], the IC50 is reported as ≥ 1000 nM.
`COc1cc2nccc(Oc3ccc(NC(=O)c4nn(CC(C)O)cc4OCCF)nc3)c2cc1OC` (centres unmarked) [Compound 152] was tested, and the IC50 was 500 to 1000 nM.
In the case of `CNCCn1cc(OCC(F)(F)F)c(C(=O)Nc2ccc(Oc3ccnc4cc(OC)c(OC)cc34)cc2F)n1` [Compound 154], the IC50 is reported as 500 to 1000 nM.
`CCCn1cc(OCC(F)(F)F)c(C(=O)Nc2ccc(Oc3ccnc4cc(OC)c(OC)cc34)nc2)n1` [Compound 139] was tested, and the IC50 was < 500 nM.
